Converted amounts (≈) assume the structure as drawn. The source made the active and inactive calls. The rule behind the calls is not given here.
Legend:
Staphylococcus aureus [1] = test: Antibacterial activity against methicillin-resistant Staphylococcus aureus USA300 assessed as bacterial growth inhibition measured by two-fold serial microdilution method; type: functional
[2] = system: Mycobacterium tuberculosis; test: Antitubercular activity against Mycobacterium tuberculosis H37Ra assessed as bacterial growth inhibition in the presence of 7H10/OADC medium; type: functional
Staphylococcus aureus [3] = test: Antibacterial activity against methicillin-resistant Staphylococcus aureus USA300 assessed as bacterial growth inhibition in CAMH medium measured by two-fold serial microdilution method; type: functional
Staphylococcus aureus [4] = test: Antibacterial activity against methicillin-resistant Staphylococcus aureus USA300 infected in Caenorhabditis elegans N2 worms assessed as worms survival at 25 ug/ml measured after 4 days; type: functional; conditions: dose 25 µg/ml; time 4 day
Staphylococcus aureus [5] = test: Antibacterial activity against methicillin-resistant Staphylococcus aureus USA300 infected in Caenorhabditis elegans N2 worms assessed as worms survival at 5 ug/ml measured after 4 days; type: functional; conditions: dose 5 µg/ml; time 4 day
[6] = target: T1, 1,4-dihydroxy-2-naphthoate octaprenyltransferase (Mycobacterium tuberculosis, UniProt P9WIP3); test: Competitive inhibition of Mycobacterium tuberculosis H37Rv membrane MenA using DHNA as a substrate in presence of [1-3H]FPP or [1-3H]GGPP; type: cell membranes
T1 sequence (P9WIP3 whole entry): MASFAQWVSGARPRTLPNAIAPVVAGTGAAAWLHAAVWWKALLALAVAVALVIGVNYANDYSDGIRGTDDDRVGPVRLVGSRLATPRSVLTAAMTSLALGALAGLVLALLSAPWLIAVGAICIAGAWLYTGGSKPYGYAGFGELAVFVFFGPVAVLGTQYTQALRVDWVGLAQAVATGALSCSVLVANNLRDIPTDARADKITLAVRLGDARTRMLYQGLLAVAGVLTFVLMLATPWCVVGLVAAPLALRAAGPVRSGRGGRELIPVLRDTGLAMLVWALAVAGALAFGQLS

[7] = system: Mycobacterium tuberculosis; test: Antitubercular activity against Mycobacterium tuberculosis H37Rv; type: functional
[8] = target: T1, 1,4-dihydroxy-2-naphthoate octaprenyltransferase; test: Inhibition of Mycobacterium tuberculosis MenA
[9] = Drug uptake in Balb/cJ mouse lungs at 200 ug INH administered for 4 days and measured on day 5 by reverse-phase HPLC analysis; type: ADME, tissue-based, Lung; conditions: in vivo, 120 h, at 200 µg, time 5 day
[10] = Toxicity in Balb/cJ mouse assessed as effect on lung damage at 10 mg/kg, INH administered for 4 days and measured on day 5 by H and E staining microscopic analysis; type: organism-based; conditions: in vivo, inhaled_or_intranasal, 120 h, time 5 day
[11] = Toxicity in Balb/cJ mouse assessed as body weight loss at 200 ug INH administered for 4 days and observed on day 5; conditions: in vivo, inhaled_or_intranasal, 120 h, dose 200 µg, time 5 day
[12] = Toxicity in Balb/cJ mouse assessed as effect on lung inflammation at 10 mg/kg, INH administered for 4 days and measured on day 5 by H and E staining microscopic analysis; type: organism-based; conditions: in vivo, inhaled_or_intranasal, 120 h, time 5 day
[13] = Toxicity in Balb/cJ mouse assessed as drug tolerability at 200 ug INH administered for 4 days; conditions: in vivo, inhaled_or_intranasal, 96 h, at 200 µg, time 4 day
Staphylococcus aureus [14] = test: Bactericidal activity against methicillin-resistant Staphylococcus aureus USA300 assessed as log10 reduction in microbial growth at 8 ug/ml in presence of menaquinone, MK4 measured after 8 hrs by time kill assay curve based analysis; type: functional; conditions: dose 8 µg/ml
Staphylococcus aureus [15] = test: Antibacterial activity against methicillin-resistant Staphylococcus aureus USA300 infected in Caenorhabditis elegans N2 worms assessed as worms killing at 25 ug/ml measured after 4 days; type: functional; conditions: dose 25 µg/ml; time 4 day
Staphylococcus aureus [16] = test: Antibacterial activity against methicillin-resistant Staphylococcus aureus USA300 infected in Caenorhabditis elegans N2 worms assessed as worms killing at 5 ug/ml measured after 4 days; type: functional; conditions: dose 5 µg/ml; time 4 day
Staphylococcus aureus [17] = test: Bactericidal activity against methicillin-resistant Staphylococcus aureus USA300 assessed as eradication in population size at 8 to 16 ug/ml measured after 2 hrs by time kill assay curve based analysis; type: functional, organism-based; conditions: dose 8-16 µg/ml
Staphylococcus aureus [18] = test: Bactericidal activity against methicillin-resistant Staphylococcus aureus USA300 at 16 ug/ml measured for 48 hrs in presence of menaquinone, MK4 by time kill assay curve based analysis; type: functional; conditions: dose 16 µg/ml
Staphylococcus aureus [19] = test: Antibacterial activity against methicillin-resistant Staphylococcus aureus USA300 assessed as bacterial growth inhibition at 8 ug/ml measured by two-fold serial microdilution method; type: functional, organism-based; conditions: dose 8.0 µg/ml
Staphylococcus aureus [20] = test: Antibacterial activity against methicillin-resistant Staphylococcus aureus USA300 assessed as bacterial growth inhibition at 8 ug/ml incubated for 24 hrs in presence 100 ug/ml of menaquinone, MK4 measured by two-fold serial microdilution method; type: functional, organism-based; conditions: dose 8.0 µg/ml

## CC(C)=CCC/C(C)=C/CC/C(C)=C/CNC1CCCC1
Staphylococcus aureus [1]
  MIC: 16 µg/mL (≈ 55.3 µM)

## O=[N+]([O-])c1ccc(OCCCCCCCCNCCc2ccc(F)cc2)cc1
Staphylococcus aureus [1]
  MIC: 8 µg/mL (≈ 20.6 µM)
[2]
  MIC: 16 µg/mL

## COc1ccc2ccc(OCCCOCC=C(C)C)cc2c1
Staphylococcus aureus [1]
  MIC: > 256 µg/mL

## O=[N+]([O-])c1ccc(OCCCCCCCCOc2ccc([N+](=O)[O-])cc2)cc1
Staphylococcus aureus [1]
  MIC: 64 µg/mL (≈ 165 µM)

## Fc1ccc(CCNCCCOc2ccc3ccc(OCCCNCCc4ccc(F)cc4)cc3c2)cc1
Staphylococcus aureus [3]
  Activity: 3 µg/mL
Staphylococcus aureus [4]
  Activity: 78%
Staphylococcus aureus [5]
  Activity: 71%

## CC(C)=CCC/C(C)=C/CC/C(C)=C/CN1CCCCC1
Staphylococcus aureus [1]
  MIC: 32 µg/mL (≈ 111 µM)
[2]
  MIC: 8 µg/mL

## CC(C)=CCC/C(C)=C/CNC1CC1
Staphylococcus aureus [1]
  MIC: > 128 µg/mL
[2]
  MIC: > 128 µg/mL

## C=CCN(C)C/C=C(\C)CC/C=C(\C)CCC=C(C)C
[6]
  IC50: 20 µM
[7]
  MIC: 6.1 µg/mL (≈ 22.1 µM)

## CC(C)=CCC/C(C)=C/CN1CCCCC1
Staphylococcus aureus [1]
  MIC: 64 µg/mL (≈ 289 µM)

## CC(C)=CCC/C(C)=C/CC/C(C)=C/CNC1CC1
Staphylococcus aureus [1]
  MIC: 16 µg/mL (≈ 61.2 µM)

## COc1ccc2ccc(OCCCCCCCCOCC=C(C)C)cc2c1
Staphylococcus aureus [1]
  MIC: > 256 µg/mL

## Fc1ccc(CNCCCCCCCCNCc2ccc(F)cc2)cc1
Staphylococcus aureus [1]
  MIC: 64 µg/mL (≈ 178 µM)

## COc1ccc2ccc(OCCCCCCCCN3CCCCC3)cc2c1
Staphylococcus aureus [3]
  Activity: 16 µg/mL
[8]
  IC50: 13.5 µM

## Fc1ccc(CCNCCCCCCCCNCCc2ccc(F)cc2)cc1
Staphylococcus aureus [1]
  MIC: 16 µg/mL (≈ 41.2 µM)
[2]
  MIC: 32 µg/mL

## C=CCN(C)CCCCCCCCOc1ccc2ccc(OC)cc2c1
[9]
  Drug uptake: 32.4%
[10]
  Activity: Non-Toxic
[11]
  Activity: Non-Toxic
Staphylococcus aureus [3]
  Activity: 16 µg/mL
[8]
  IC50: 16.9 µM
[12]
  Activity: Non-Toxic
Staphylococcus aureus [1]
  Activity: Active
[13]
  Activity: 100%

## CC(C)=CCC/C(C)=C/CC/C(C)=C/CNCCc1ccc(F)cc1
Staphylococcus aureus [14]
  Activity: 3.5 log10CFU/ml
Staphylococcus aureus [15]
  Activity: 100%
Staphylococcus aureus [1]
  MIC: 8 µg/mL (≈ 23.3 µM)
Staphylococcus aureus [16]
  Activity: 83%
[2]
  MIC: 4 µg/mL
Staphylococcus aureus [17]
  Activity: Active
Staphylococcus aureus [18]
  Activity: 100%
Staphylococcus aureus [19]
  Activity: Active
Staphylococcus aureus [20]
  Activity: inactive

## CC(=O)NC[C@H]1CN(c2ccc(N3CCOCC3)c(F)c2)C(=O)O1 [LINEZOLID]
Staphylococcus aureus [1]
  MIC: 1 µg/mL (≈ 2.96 µM)

## CC(C)=CCC/C(C)=C/CC/C(C)=C/COC(=O)C(N)CC(=O)O (stereo not given)
[6]
  IC50: 5.33 µM
[7]
  MIC: 12.5 µg/mL (≈ 37 µM)

## CC(C)=CCC/C(C)=C/CNC1CCCC1
Staphylococcus aureus [1]
  MIC: 128 µg/mL (≈ 578 µM)
[2]
  MIC: 64 µg/mL

## CC(C)=CCC/C(C)=C/CNCCc1ccc(F)cc1
Staphylococcus aureus [1]
  MIC: 32 µg/mL (≈ 116 µM)

— ChEMBL document CHEMBL4819151, “Synthesis, optimization, in vitro and in vivo study of bicyclic substituted amine as MenA inhibitor” (Bioorg Med Chem Lett, 2021)
